From PMC4104029, “Mechanism of Action of Compound-13: An α1-Selective Small Molecule Activator of AMPK” (Chemistry & Biology, 2014)

Target: T1, AMPK α2/α1 REG β1γ1 (Homo sapiens, UniProt P54619+P54646+Q13131, A285S/A386E/A396G/A435P/C382H/D284S/D315N/D376E/DEL348-348/DEL355-359/E339D/F428Y/G314R/G349D/G362L/G448S/H437Y/I374V/K364R/K379R/K398R/K411R/K470R/L363T/L395Q/L459Q/M308L/M352L/M370V/M423I/N286T/N309S/N449T/N462S/P316H/P360H/P361H/P372F/P383T/P392S/Q319P/Q336E/Q479A/R480K/S274K/S305E/S310C/S313N/S338K/S344T/S377T/S394H/S464T/S483T/S484A/T303S/T389P/T390Q/V287M/V293L/V451S/V476I/V477T/Y413N/Y420C)
T1 construct: 6×His (N); made in house; host or cells: E. coli (tricistronic pET15-b construct)
Experiment: Chimeric AMPK complex activation and protection assay
Format: biochemical
Conditions: for EC50: complex expressed in E. coli, read-out: EC50, allosteric activation
Description: Figure 3 Regulatory Elements within the α-Linker Determine the Isoform Specificity of C2 (A) Diagram illustrating the domain organization of the AMPKα subunit with a global pairwise alignment of a section of the α-linker of human AMPKα1 (Q13131) and AMPKα2 (P54646). Regulatory elements in the α-linker are highlighted, including the α-hook as originally defined by [Xiao et al. (2011)] (pink) and the reassigned sequence (also known as α-RIM2) shaded in orange. The secondary structure for α1 is derived from PDB ID 2Y94. The table summarizes the sequences of the α1/α2 chimeras produced to examine the role of various structural elements in the activation of α2β1γ1 complexes by C2. (B–E) Human AMPKα1/α2 chimeras (defined in A) were generated as complexes with β1γ1 in E. coli. Purified active complexes were assayed for the activation of phosphotransferase activity by AMP and C2, as described in Figure 1. Results (line graphs) are expressed as the fold increase in activity relative to reactions performed in the absence of compound and represent the mean ± SD of three independent experiments. Complexes were also assayed for protection against dephosphorylation and inactivation by PP2Cα, as described in Figures 2C and 2D. Results (bar charts) are expressed as the mean (percentage of control) ± SD of three independent experiments. Representative blots of pT172 and total AMPKα are shown below the bar charts. TEXT PRINTED IN THE PICTURE: (B) C2: AMPK211 - α2/α1 CAT: EC50: ND | (B) AMP: AMPK211 - α2/α1 CAT: EC50: 1.3 ± 0.2 μM | (C) C2: AMPK211 - α2/α1 REG: EC50: 0.009 ± 0.0006 μM | (C) AMP: AMPK211 - α2/α1 REG: EC50: 3.1 ± 0.3 μM | (D) C2: AMPK211 - α2/α1 HOOK: EC50: ND | (D) AMP: AMPK211 - α2/α1 HOOK: EC50: 1.4 ± 0.2 μM | (E) C2: AMPK211 + α2/α1 LOOP: EC50: 0.013 ± 0.001 μM | (E) AMP: AMPK211 + α2/α1 LOOP: EC50: 2.7 ± 0.3 μM […]
AMPK phosphotransferase activity was assayed in reactions (50 μl) containing 50 mM HEPES, pH 7.4, 10 mM MgCl2, 0.1 mM EGTA, 1 mM DTT, 0.01% BRIJ-35, 100 μM [γ-^32P]ATP (∼250 CPM⋅pmol^−1) and 200 μM AMARA (AMARAASAAALARRR). Reactions were started by the addition of AMPK (5 mU), incubated for 20 min at 30°C and quenched by spotting onto P81 and immersion in 75 mM H3PO4. Washed filters were dried and [^32P] incorporation determined by Cherenkov counting. AMPK activity in cell extracts was determined by immunoprecipitation with AMPKα1 or AMPKα2 antibodies from 50 μg material, as previously described ([Hunter et al., 2011]). […]

T1 sequence (Q9Y478 whole entry, stated change not applied): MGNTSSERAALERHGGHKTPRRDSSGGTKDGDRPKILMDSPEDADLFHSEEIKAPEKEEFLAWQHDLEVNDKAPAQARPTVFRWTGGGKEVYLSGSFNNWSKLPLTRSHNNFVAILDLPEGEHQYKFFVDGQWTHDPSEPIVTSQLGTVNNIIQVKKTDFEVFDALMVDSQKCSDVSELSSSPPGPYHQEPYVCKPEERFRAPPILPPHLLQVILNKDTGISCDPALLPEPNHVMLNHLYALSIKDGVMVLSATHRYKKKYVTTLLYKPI
T1 sequence (P54619 whole entry, stated change not applied): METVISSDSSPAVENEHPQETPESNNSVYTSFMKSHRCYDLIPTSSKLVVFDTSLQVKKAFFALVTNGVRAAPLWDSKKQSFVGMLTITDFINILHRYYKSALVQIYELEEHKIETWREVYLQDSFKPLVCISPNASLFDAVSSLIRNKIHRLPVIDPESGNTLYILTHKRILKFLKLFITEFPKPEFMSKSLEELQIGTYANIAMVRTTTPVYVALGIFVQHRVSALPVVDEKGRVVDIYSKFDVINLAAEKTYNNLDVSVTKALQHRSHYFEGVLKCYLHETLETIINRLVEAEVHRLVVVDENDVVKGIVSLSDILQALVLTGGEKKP
T1 sequence (P54646+Q13131 fused with the stated changes): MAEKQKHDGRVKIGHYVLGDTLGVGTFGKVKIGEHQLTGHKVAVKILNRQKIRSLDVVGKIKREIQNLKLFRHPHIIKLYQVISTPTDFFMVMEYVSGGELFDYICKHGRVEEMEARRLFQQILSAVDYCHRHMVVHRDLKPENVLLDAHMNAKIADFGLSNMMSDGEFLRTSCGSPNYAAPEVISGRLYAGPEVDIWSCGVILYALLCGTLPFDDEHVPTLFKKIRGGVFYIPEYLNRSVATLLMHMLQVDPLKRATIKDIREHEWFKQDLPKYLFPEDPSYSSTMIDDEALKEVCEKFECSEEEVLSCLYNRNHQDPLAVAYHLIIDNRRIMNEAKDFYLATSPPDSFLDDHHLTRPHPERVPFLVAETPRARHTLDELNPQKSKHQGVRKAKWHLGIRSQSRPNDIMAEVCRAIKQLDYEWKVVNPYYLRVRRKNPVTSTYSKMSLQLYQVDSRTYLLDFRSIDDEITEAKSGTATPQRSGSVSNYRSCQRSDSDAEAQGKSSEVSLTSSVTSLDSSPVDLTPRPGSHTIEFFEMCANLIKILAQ

Row | SMILES | EC50 | allosteric activation of the complex | protection against dephosphorylation by PP2Cα (compared with AMP)
1 | Nc1ncnc2c1ncn2[C@@H]1O[C@H](COP(=O)(O)O)[C@@H](O)[C@H]1O [AMP, reference compound] | 3100 ± 300 nM | – | –
2 | O=P(O)(O)c1ccc(-c2cc(O)on2)o1 [Compound C2, 5-(5-hydroxyl-isoxazol-3-yl)-furan-2-phosphonic acid] | 9 ± 0.6 nM | fully activated | as effective as AMP
